Measured values published in patent US20050282863A1, “Novel-N substituted dihydrobenzothiepino, dihydrobenzoxepino and tetrahydro benzocyclohepta indoles as selective estrogen receptor modulators” (Council of Scientific & Industrial Research, priority 2004, published 2005).

Target: T1, estrogen receptors (Rattus norvegicus, UniProt P06211)
T1 construct: Aliquot of uterine cytosol (200 μl; 2 uteri per ml) prepared in TEA buffer; from tissue; host or cells: uterine cytosol of immature estradiol-primed 20-21 day old rats
T1 sequence (P06211 1-600): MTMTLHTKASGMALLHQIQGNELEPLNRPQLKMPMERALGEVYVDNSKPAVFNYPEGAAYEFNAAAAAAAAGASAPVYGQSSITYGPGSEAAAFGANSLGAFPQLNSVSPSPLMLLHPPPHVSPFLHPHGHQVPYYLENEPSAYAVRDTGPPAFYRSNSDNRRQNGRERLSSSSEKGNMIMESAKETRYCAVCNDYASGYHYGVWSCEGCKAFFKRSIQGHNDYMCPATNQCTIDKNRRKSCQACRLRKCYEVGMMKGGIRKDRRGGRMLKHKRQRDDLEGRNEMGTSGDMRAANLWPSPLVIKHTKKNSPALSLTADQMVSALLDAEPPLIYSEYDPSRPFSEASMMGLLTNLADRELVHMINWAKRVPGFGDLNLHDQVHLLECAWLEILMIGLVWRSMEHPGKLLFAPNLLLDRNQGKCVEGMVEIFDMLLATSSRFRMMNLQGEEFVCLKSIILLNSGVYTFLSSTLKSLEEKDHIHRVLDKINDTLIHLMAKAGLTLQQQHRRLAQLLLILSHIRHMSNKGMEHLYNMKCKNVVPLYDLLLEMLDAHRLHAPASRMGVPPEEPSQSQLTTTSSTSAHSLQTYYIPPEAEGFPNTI
Experiment: Relative binding affinity (RBA) to estrogen receptors, 3H-estradiol competition assay
Parameters: key: % of 17-beta-estradiol binding affinity (estradiol = 100)
Conditions: relative to 17-beta-estradiol (=100, percentage value); rat uterine cytosol, 3H-E2, 18 hrs at 4° C.
Procedure, shortened: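 Competition against a fixed concentration of ³H-estradiol for cytosolic receptor from uteri of immature (20-21 day) estradiol-primed rats, in TEA buffer pH 7.4 with ≤5% DMF, 18 h at 4° C. Free ligand removed with dextran-coated charcoal; bound radioactivity counted and RBA read from percent-bound vs log concentration plot, expressed as percentage.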

**Q.** How did the RBA turn out when `CCCCN(C)CCCCCn1c2c(c3ccccc31)CCSc1ccccc1-2` [Example number 13, 12-[5-(N-butylmethylamino)pentyl]-6,7-dihydro-12H-benzothiepino [5,4-b]indole] was run?
**A.** Its RBA is <0.001.

**Q.** For `c1ccc2c(c1)SCCc1c-2n(CCCCCCN2CCCCC2)c2ccccc12` [Example number 18, 12-[6-(Piperidine-1-yl)hexyl]-6,7-dihydro-12H-benzothiepino [5,4-b]indole], which RBA is on record?
**A.** The RBA was 0.17.
